Measured values from patent US20230278972A1, “SUBSTITUTED HALOALKYL SULFONANILIDE HERBICIDES” (FMC Corporation, priority 2020, published 2023).

Assays:
Format in all cases: in vivo
[1] = system: ragweed (common ragweed, Ambrosia artemisiifolia); assay: Test A preemergence, ragweed; conditions: Preemergence; for Plant response rating, Ragweed: 31 g ai/ha, visual injury, 0 to 100 scale (0 no effect, 100 complete control), approx. 10 days; for Ragweed plant response rating: 125 g ai/ha, visual injury on 0 to 100 scale (0 no effect, 100 complete control), approximately 10 days
Summary of the method: (§1)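 Directed soil spray at planting gave the preemergence treatment, while foliar application to one- to two-leaf seedlings (2–10 cm) gave the postemergence one; pots held a loam and sand mixture and chemicals were carried in a non-phytotoxic solvent with surfactant.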

[2] = system: Foxtail, Giant (giant foxtail, Setaria faberi); assay: Test A postemergence, Foxtail, Giant; conditions: Postemergence, 0 to 100 scale (0 no effect, 100 complete control)
Summary of the method: as §1

[3] = system: pigweed (Amaranthus retroflexus); assay: Test A postemergence, pigweed; conditions: Postemergence, 0 to 100 scale (0 no effect, 100 complete control)
Summary of the method: as §1

[4] = system: galium (catchweed bedstraw, Galium aparine); assay: Test A postemergence, galium; conditions: Postemergence, 0 to 100 scale (0 no effect, 100 complete control)
Summary of the method: (§2)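 Postemergence ratings come from foliar sprays onto one- to two-leaf plants of 2 to 10 cm grown in loam/sand; preemergence ratings come from a directed spray onto the soil of newly seeded pots. Formulation was a surfactant-containing non-phytotoxic solvent blend.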

[5] = system: Foxtail, Giant (giant foxtail, Setaria faberi); assay: Test A preemergence, Foxtail, Giant; conditions: Preemergence; for Plant response rating, Foxtail, Giant: 31 g ai/ha, visual injury, 0 to 100 scale (0 no effect, 100 complete control), approx. 10 days; for Foxtail, Giant plant response rating: 125 g ai/ha, visual injury on 0 to 100 scale (0 no effect, 100 complete control), approximately 10 days
Summary of the method: as §1

[6] = system: pigweed (Amaranthus retroflexus); assay: Test A preemergence, pigweed; conditions: for Plant response rating, Pigweed: 31 g ai/ha, visual injury, 0 to 100 scale (0 no effect, 100 complete control), approx. 10 days; for Pigweed plant response rating: 125 g ai/ha, visual injury on 0 to 100 scale (0 no effect, 100 complete control), approximately 10 days
Summary of the method: as §2

[7] = system: barnyardgrass (Echinochloa crus-galli); assay: Test A postemergence, barnyardgrass; conditions: Postemergence, 0 to 100 scale (0 no effect, 100 complete control)
Summary of the method: as §2

[8] = system: Ryegrass, Italian (Italian ryegrass, Lolium multiflorum); assay: Test A preemergence, Ryegrass, Italian; conditions: Preemergence; for Plant response rating, Ryegrass, Italian: 31 g ai/ha, visual injury, 0 to 100 scale (0 no effect, 100 complete control), approx. 10 days; for Ryegrass, Italian plant response rating: 125 g ai/ha, visual injury on 0 to 100 scale (0 no effect, 100 complete control), approximately 10 days
Summary of the method: as §1

[9] = system: blackgrass (Alopecurus myosuroides); assay: Test A postemergence, blackgrass; conditions: Postemergence, 0 to 100 scale (0 no effect, 100 complete control)
Summary of the method: as §1

kochia (Bassia scoparia) [10] = assay: Test A postemergence, kochia; conditions: Postemergence, 0 to 100 scale (0 no effect, 100 complete control)
Summary of the method: as §1

kochia (Bassia scoparia) [11] = assay: Test A preemergence, kochia; conditions: Preemergence; for Plant response rating, Kochia: 31 g ai/ha, visual injury, 0 to 100 scale (0 no effect, 100 complete control), approx. 10 days; for Kochia plant response rating: 125 g ai/ha, visual injury on 0 to 100 scale (0 no effect, 100 complete control), approximately 10 days
Summary of the method: as §1

[12] = system: barnyardgrass (Echinochloa crus-galli); assay: Test A preemergence, barnyardgrass; conditions: Preemergence; for Plant response rating, Barnyardgrass: 31 g ai/ha, visual injury, 0 to 100 scale (0 no effect, 100 complete control), approx. 10 days; for Barnyardgrass plant response rating: 125 g ai/ha, visual injury on 0 to 100 scale (0 no effect, 100 complete control), approximately 10 days
Summary of the method: as §1

[13] = system: wheat (Triticum aestivum); assay: Test A postemergence, wheat; conditions: Postemergence, 0 to 100 scale (0 no effect, 100 complete control)
Summary of the method: as §2

corn (Zea mays) = assay: Test A postemergence, corn; conditions: Postemergence, 0 to 100 scale (0 no effect, 100 complete control)
Summary of the method: as §1

[14] = system: ragweed (common ragweed, Ambrosia artemisiifolia); assay: Test A postemergence, ragweed; conditions: Postemergence, 0 to 100 scale (0 no effect, 100 complete control)
Summary of the method: as §1

[15] = system: Ryegrass, Italian (Italian ryegrass, Lolium multiflorum); assay: Test A postemergence, Ryegrass, Italian; conditions: Postemergence, 0 to 100 scale (0 no effect, 100 complete control)
Summary of the method: as §1

[16] = 125 g ai/ha, visual injury approx. 10 days

Compound | Plant response rating, Ragweed [1] | Ragweed plant response rating [1] | Plant response rating, Foxtail, Giant ([2]; 31 g ai/ha) | Plant response rating, Foxtail, Giant [2, 16] | Plant response rating, Pigweed ([3]; 31 g ai/ha) | Plant response rating, Pigweed [3, 16] | Plant response rating, Galium ([4]; 31 g ai/ha) | Plant response rating, Galium [4, 16] | Plant response rating, Foxtail, Giant [5] | Foxtail, Giant plant response rating [5] | Plant response rating, Pigweed [6] | Pigweed plant response rating [6] | Plant response rating, Barnyardgrass ([7]; 31 g ai/ha) | Plant response rating, Barnyardgrass [7, 16] | Plant response rating, Ryegrass, Italian [8] | Ryegrass, Italian plant response rating [8] | Plant response rating, Blackgrass ([9]; 31 g ai/ha) | Plant response rating, Blackgrass [9, 16] | Plant response rating, Kochia (kochia (Bassia scoparia) [10]; 31 g ai/ha) | Plant response rating, Kochia (kochia (Bassia scoparia) [10]; [16]) | other results
CO[C@@H]1CCCN(C(=O)c2cc(NS(=O)(=O)C(F)(F)F)c(C)cc2C)C1 [Compound 94] | 0 | 30 | 0 | 30 | 50 | 80 | 70 | 90 | 50 | 100 | 100 | 100 | 20 | 60 | 30 | 90 | 0 | 20 | 10 | 50 | Plant response rating, Kochia (kochia (Bassia scoparia) [11]): 0; Kochia plant response rating (kochia (Bassia scoparia) [11]): 60; Plant response rating, Barnyardgrass [12]: 10; Barnyardgrass plant response rating [12]: 90; Plant response rating, Wheat ([13]; 31 g ai/ha): 10; Plant response rating, Wheat [13, 16]: 50; Plant response rating, Corn (corn (Zea mays); 31 g ai/ha): 0; Plant response rating, Corn (corn (Zea mays); [16]): 20; Plant response rating, Ragweed ([14]; 31 g ai/ha): 10; Plant response rating, Ragweed [14, 16]: 40; Plant response rating, Ryegrass, Italian ([15]; 31 g ai/ha): 20; Plant response rating, Ryegrass, Italian [15, 16]: 50
CO[C@@H]1CCCN(C(=O)c2cc(N(S(=O)(=O)C(F)(F)F)S(=O)(=O)C(F)(F)F)c(C)cc2C)C1 [Compound 95] | 0 | 60 | 0 | 0 | 40 | 80 | 40 | 80 | 90 | 100 | 70 | 90 | 0 | 30 | 20 | 90 | 0 | 0 | 10 | 30 | Plant response rating, Kochia (kochia (Bassia scoparia) [11]): 0; Kochia plant response rating (kochia (Bassia scoparia) [11]): 10; Plant response rating, Barnyardgrass [12]: 10; Barnyardgrass plant response rating [12]: 80; Plant response rating, Wheat ([13]; 31 g ai/ha): 0; Plant response rating, Wheat [13, 16]: 10; Plant response rating, Corn (corn (Zea mays); 31 g ai/ha): 0; Plant response rating, Corn (corn (Zea mays); [16]): 20; Plant response rating, Ragweed ([14]; 31 g ai/ha): 0; Plant response rating, Ragweed [14, 16]: 0; Plant response rating, Ryegrass, Italian ([15]; 31 g ai/ha): 0; Plant response rating, Ryegrass, Italian [15, 16]: 0
COC1CCCN(C(=O)c2cc(N(COC(C)=O)S(=O)(=O)C(F)(F)F)c(C)cc2C)C1 (centres unmarked) [Compound 96] | 0 | 30 | 0 | 10 | 30 | 30 | 80 | 80 | 40 | 80 | 20 | 90 | 0 | 30 | 0 | 80 | 0 | 0 | 10 | 20 | Plant response rating, Kochia (kochia (Bassia scoparia) [11]): 0; Kochia plant response rating (kochia (Bassia scoparia) [11]): 0; Plant response rating, Barnyardgrass [12]: 10; Barnyardgrass plant response rating [12]: 70; Plant response rating, Wheat ([13]; 31 g ai/ha): 0; Plant response rating, Wheat [13, 16]: 40; Plant response rating, Corn (corn (Zea mays); 31 g ai/ha): 10; Plant response rating, Corn (corn (Zea mays); [16]): 10; Plant response rating, Ragweed ([14]; 31 g ai/ha): 30; Plant response rating, Ragweed [14, 16]: 40; Plant response rating, Ryegrass, Italian ([15]; 31 g ai/ha): 0; Plant response rating, Ryegrass, Italian [15, 16]: 20
COC1CCCN(C(=O)c2cc(NS(=O)(=O)C(F)(F)F)c(C)c(F)c2C)C1 (centres unmarked) [Compound 98] | 30 | 80 | 0 | 20 | 30 | 80 | 60 | 90 | 80 | 100 | 70 | 100 | 0 | 50 | 30 | 50 | 20 | 0 | 10 | 20 | Plant response rating, Kochia (kochia (Bassia scoparia) [11]): 40; Kochia plant response rating (kochia (Bassia scoparia) [11]): 40; Plant response rating, Barnyardgrass [12]: 0; Barnyardgrass plant response rating [12]: 90; Plant response rating, Wheat ([13]; 31 g ai/ha): 0; Plant response rating, Wheat [13, 16]: 40; Plant response rating, Corn (corn (Zea mays); 31 g ai/ha): 0; Plant response rating, Corn (corn (Zea mays); [16]): 10; Plant response rating, Ragweed ([14]; 31 g ai/ha): 50; Plant response rating, Ragweed [14, 16]: 60; Plant response rating, Ryegrass, Italian ([15]; 31 g ai/ha): 30; Plant response rating, Ryegrass, Italian [15, 16]: 30
